Data reported in paper PMC8637440, “Structural Modifications Yield Novel Insights Into the Intriguing Pharmacodynamic Potential of Anti-inflammatory Nitro-Fatty Acids” (Frontiers in Pharmacology, 2021).

Experiments:
[1] = biological target: T1, recombinant firefly luciferase (Photinus pyralis, UniProt P08659); assay: Firefly luciferase activity assay; format: biochemical; conditions: 15 min at 37°C
T1 construct: purchased Sigma-Aldrich
Procedure: Recombinant firefly luciferase (Sigma-Aldrich, St. Louis, Missouri, United States) was diluted to 10^4 U/mg in 1× PBS (phosphate buffered saline) and subsequently incubated with NFA or the substances of interest for 15 min at 37°C. Afterwards, 50 µl per reaction mix was transferred into a white 96-well plate, to which 50 µl/well Dual-Glo® (Promega, Madison, Wisconsin, United States) was added and incubated for another 10 min at 37°C. Luminescence was analyzed with a plate reader.
Suppl. Figure 1: Fatty acids interfere with firefly luciferase making the luc-based assays not suitable for analysis of signaling pathways modulated by NFA. 10 4 units of firefly luciferase were incubated with 1 µM and 10 µM OA or NFA with different carbon chain length (A) and Michael acceptor position (B) for 15 min at 37°C. Firefly activity is presented as percentage of vehicle control (DMSO) mean + SD, n=5. Compared to vehicle control statistical significance was calculated by one-way ANOVA with Bonferroni post-test. P-values of **P ≦0.0021, **** P ≦0.0001 are considered significant. DMSO, dimethyl sulfoxide; 9NOA, 9-nitro oleic acid; NFA, nitro-fatty acids, OA, oleic acid. […]

[2] = test system: Nrf-2; assay: Nrf-2 induction in HCT-116 cells (Western blot and ELISA); format: cell-based, human; conditions: 10 µM, 4 h, HCT-116, Western blot and ELISA
Procedure: The Nrf-2 and NF-κB transcription factors in the nuclear extracts were detected using an Nrf-2 Transcription Assay Kit (Cayman Chemical, # 600590) and NF-κB (p65 and p50) Transcription Factor Assay Kit (Cayman Chemical, # 10007889 and # 10006912). Prior to assay performance, the nuclear extracts were generated using a Nuclear Extraction Kit (Cayman Chemical, # 10009277). The assay was performed according to the manufacturer’s instructions. For all kits, the nuclear extracts were incubated overnight at 4°C. Development was carried out for 15–20 min or until the wells turned medium to dark blue. Five minutes after the stop solution had been added, the absorbance was read at 450 nm using a plate reader.
HCT-116 and A549 cells were washed with 1× PBS, and cell extracts were generated using a Nuclear Extraction Kit (Cayman Chemical, #10009277) according to the manufacturer’s instructions, whereas whole-cell lysates were obtained using SDS lysis buffer (55.5 mM Tris-HCl pH 6.8, 2.2% SDS, 9% glycerol supplemented with protease (cOmplete® Protease Inhibitor Cocktail, Roche, Mannheim, Germany) and phosphatase (PhosStop® Easy Pack, Roche, Mannheim, Germany) inhibitors. Protein concentrations from the nuclear and cytosolic fractions were determined with a bicinchoninic acid (BCA) protein assay kit (Pierce™, Rockford, Illinois, United States). Cytoplasmic and nuclear extracts (100 µg each) and 30 µg whole-cell lysates were diluted in 5× Laemmli loading dye and denatured for 10 min at 95°C, loaded on a 10% SDS polyacrylamide gel, and separated by gel electrophoresis for 15 min at 80 V followed by 60 min at 120 V. The separated proteins were blotted onto a nitrocellulose membrane (Hybond-C Extra, Amersham Biosciences Ltd., UK) using the Mini Trans-Blot® module (Bio-Rad, Hercules, California, United States) for 90 min at 90 V. The membrane was blocked with Odyssey blocking buffer (Li-Cor Biosciences, Bad Homburg, Germany) or 5% milk powder in TBS-T (Tris Buffered Saline with 0.1% Tween) for 1 h at room temperature (RT). The membranes were incubated with the primary antibodies overnight at 4°C, and then with the secondary antibodies for 1 h at RT. The primary antibodies were diluted 1:1,000 and the secondary antibodies were diluted 1:10,000 to 1:20,000. […]
FIGURE 2 Effects of NFA on Nrf-2 expression in colorectal cancer cells. HCT-116 cells were treated with 10 µM NFA and tBHQ and/or MMF for 4 h, and Nrf-2 levels were analyzed by western blotting and ELISA. […] (B) Nrf-2 expression levels were evaluated with an ELISA after incubation with NFA with different carbon chain lengths and Michael acceptor positions. […]

[3] = biological target: T2, sEH (Homo sapiens, UniProt P34913); format: biochemical; set-up: purchased Cayman Chemicals #10011671; conditions: 100 nM
T2 sequence (P34913 1-555): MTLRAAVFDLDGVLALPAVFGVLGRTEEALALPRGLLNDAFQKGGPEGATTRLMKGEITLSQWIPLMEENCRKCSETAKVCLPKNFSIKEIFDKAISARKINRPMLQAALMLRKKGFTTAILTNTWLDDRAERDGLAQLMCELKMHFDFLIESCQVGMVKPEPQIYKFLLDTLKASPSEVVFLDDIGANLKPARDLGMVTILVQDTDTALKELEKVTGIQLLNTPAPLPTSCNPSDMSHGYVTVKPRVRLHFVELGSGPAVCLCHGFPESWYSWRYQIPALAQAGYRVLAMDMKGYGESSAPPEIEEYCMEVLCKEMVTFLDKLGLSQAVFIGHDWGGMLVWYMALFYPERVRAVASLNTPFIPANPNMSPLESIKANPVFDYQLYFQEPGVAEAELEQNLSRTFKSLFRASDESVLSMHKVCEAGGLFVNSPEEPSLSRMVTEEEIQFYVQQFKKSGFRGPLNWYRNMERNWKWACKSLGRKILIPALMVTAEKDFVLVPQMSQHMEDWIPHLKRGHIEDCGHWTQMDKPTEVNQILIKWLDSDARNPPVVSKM
Procedure: FIGURE 3 Effects of NFA on sEH activity. […] Data are the mean ± SEM of n = 3–7. […] The cells were lysed, and hydrolase activity was measured by Epoxy Fluor 7 lysis. […] Statistical significance was calculated by one-way ANOVA with Bonferroni post-test and multiple comparisons against the DMSO control.

T1 sequence (P08659 whole entry): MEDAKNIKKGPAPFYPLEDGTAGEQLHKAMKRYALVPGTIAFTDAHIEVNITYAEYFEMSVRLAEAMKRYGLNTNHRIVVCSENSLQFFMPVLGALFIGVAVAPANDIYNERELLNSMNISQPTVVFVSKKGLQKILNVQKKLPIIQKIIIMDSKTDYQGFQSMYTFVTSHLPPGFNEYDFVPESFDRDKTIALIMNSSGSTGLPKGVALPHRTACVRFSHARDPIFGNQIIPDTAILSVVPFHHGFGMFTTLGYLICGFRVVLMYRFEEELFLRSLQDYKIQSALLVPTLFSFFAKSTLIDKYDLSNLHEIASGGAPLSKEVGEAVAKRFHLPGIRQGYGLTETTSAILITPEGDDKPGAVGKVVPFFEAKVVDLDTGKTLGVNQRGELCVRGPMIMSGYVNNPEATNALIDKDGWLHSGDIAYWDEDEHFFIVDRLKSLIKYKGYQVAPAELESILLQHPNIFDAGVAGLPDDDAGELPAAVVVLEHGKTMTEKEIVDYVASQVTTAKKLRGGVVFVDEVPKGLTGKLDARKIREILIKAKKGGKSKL

SMILES	inhibition at 1 µM ([1]; 1 µM) [%]	inhibition of recombinant firefly luciferase ([1]; 10 µM)	induction of Nrf-2 (protein levels / signaling) [2]	inhibition of recombinant sEH [3]
CCCCCCCCC=C(CCCCCCCC(=O)O)[N+](=O)[O-] [18.9.9, 9-nitro-octadec-9-enoic acid]	> 50	complete inhibition	strongest effects	–
CCCCCCCC/C=C\CCCCCCCC(=O)O [OA, oleic acid, reference compound]	–	–	did not affect	strong suppressive effect
